This is an account of results in ChEMBL document CHEMBL1151208, “Cytotoxic flavonoids and alpha-pyrones from Cryptocarya obovata” (J Nat Prod, 2004).

Each structure is given as a SMILES string. pIC50: −log10 of the molar value. Active and inactive are the calls of the source. The rule behind the calls is not given here.

The experiment concerns KB. Kind of experiment: Cytotoxicity against human KB cells. The experiment is classed as functional, cell-based.

For `CCOC(=O)CCC[C@@H]1C[C@H]2C[C@](/C=C/c3ccccc3)(Oc3cc4c(c(O)c32)C(=O)C[C@@H](c2ccccc2)O4)O1`, the result was inactive.

Take `CCOC(=O)CCC[C@@H]1C[C@H]2C[C@](/C=C/c3ccccc3)(Oc3cc4c(c(O)c32)C(=O)C[C@H](c2ccccc2)O4)O1`: the result was inactive.

`O=C1C=CC[C@H](C[C@@H]2C[C@H]3C[C@](/C=C/c4ccccc4)(Oc4c(C(=O)/C=C/c5ccccc5)c(O)cc(O)c43)O2)O1` [OBOCHALCOLACTONE]: the pIC50 is 5.30.

The compound `O=C1C=C(/C=C/c2ccccc2)O[C@H](C[C@H]2CC=CC(=O)O2)C1` [OBOLACTONE] showed a negative-log IC50 (pIC50) of 5.52.

By pIC50 is commonly meant −log10 of the IC50, conventionally taken in molar units. A lower pIC50 goes with a large IC50.
